Laboratory results: PubChem BioAssay (NCI)
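Results reflect a 48-hour exposure of cells in 96-well plates to compound at five concentrations. GI50 is the concentration that inhibits growth by half. At the TGI there is no net growth.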

Columns and labels:
Experiment in all cases: inhibition of tumour cell growth, NCI panel, 48 h
[1] = test system: TK-10 renal
[2] = test system: MDA-MB-231 breast
[3] = test system: K-562 leukemia
[4] = test system: SF-539 CNS
[5] = test system: UACC-62 melanoma
[6] = test system: MDA-MB-435
[7] = test system: RXF 393 renal
[8] = test system: SNB-19 CNS
[9] = test system: OVCAR-4 ovarian
[10] = test system: A498 renal
[11] = test system: IGROV1 ovarian
[12] = test system: MOLT-4 leukemia
[13] = test system: A549 NSCLC
[14] = test system: U251 CNS
[15] = test system: SK-MEL-2 melanoma
[16] = test system: ACHN renal
[17] = test system: RPMI-8226 leukemia
[18] = test system: SW-620 colon
[19] = test system: HS 578T breast
[20] = test system: SNB-75 CNS
[21] = test system: COLO 205 colon
[22] = test system: 786-0 renal
[23] = test system: CAKI-1 renal
[24] = test system: SK-MEL-5 melanoma
[25] = test system: DU-145 prostate
[26] = test system: BT-549 breast
[27] = test system: OVCAR-8 ovarian
[28] = test system: HOP-62 NSCLC
[29] = test system: SN12C renal

In the case of `NC(=O)c1c(NC(=O)c2ccc(C(F)(F)F)cc2)sc2c1CCC(=O)C2`, the GI50 [1] is reported as 1.66 µM, the TGI [1] is reported as 11.2 µM and the GI50 [2] is reported as 1.02 µM. The TGI [2] was 3.98 µM, the GI50 [3] was 0.3 µM and the TGI [3] was > 41.3 µM. For the same compound, the GI50 [4] was 0.5 µM, the TGI [4] was 1.81 µM and the GI50 [5] was 0.758 µM. The TGI [5] was 2.35 µM, the GI50 [6] was 1.95 µM and the TGI [6] was 4.75 µM. For the same compound, the GI50 [7] was 0.874 µM, the TGI [7] was 4.24 µM and the GI50 [8] was 1.31 µM. The TGI [8] was 9.92 µM, the GI50 [9] was 1.94 µM and the TGI [9] was 4.83 µM. The GI50 [10] was 5.06 µM, the TGI [10] was 19.2 µM and the GI50 [11] was 1.23 µM. The TGI [11] was 4.35 µM, the GI50 [12] was 1.07 µM and the TGI [12] was 8.32 µM. It also gave a GI50 [13] of 3.12 µM, a TGI [13] of 15.4 µM and a GI50 [14] of 0.426 µM. The TGI [14] was 4.67 µM, the GI50 [15] was 3.21 µM and the TGI [15] was 11.1 µM. It also gave a GI50 [16] of 1.25 µM, a TGI [16] of 2.53 µM and a GI50 [17] of 0.279 µM. It also gave a TGI [17] of 1.26 µM, a GI50 [18] of 0.379 µM and a TGI [18] of 1.96 µM. The GI50 [19] was 1.89 µM, the TGI [19] was 19.3 µM and the GI50 [20] was 1.79 µM. It also gave a TGI [20] of 5.95 µM, a GI50 [21] of 1.55 µM and a TGI [21] of 3.93 µM. For the same compound, the GI50 [22] was 3.91 µM, the TGI [22] was 32 µM and the GI50 [23] was 0.75 µM. It also gave a TGI [23] of 2.43 µM, a GI50 [24] of 1.73 µM and a TGI [24] of 3.32 µM. For the same compound, the GI50 [25] was 4.81 µM, the TGI [25] was > 100 µM and the GI50 [26] was 0.569 µM. It also gave a TGI [26] of 7.21 µM, a GI50 [27] of 1.85 µM and a TGI [27] of 25 µM. For the same compound, the GI50 [28] was 3.55 µM, the TGI [28] was 17.6 µM and the GI50 [29] was 2.23 µM. For the same compound, the TGI [29] was 13.2 µM.
